Measurements: PMC9853847 (2023)

Tests used:
Assay in all cases: FRET titration (MLCT donor to Cy5.5-labeled DNA), dose-response fit
[1] = system: mismatch 2 duplex (27-mer, CC mismatch at 14 bp) (DNA, mismatch bulge abasic) GACCAGCTTATCACCCCTAGATACCAT/ATGGTATCTAGGGCTGATAAGCTGGTC; details: 200 mM NaCl; 5 mM Tris, pH 7.5; 1 μM DNA
[2] = system: mismatch 3 duplex (27-mer, CC mismatch at 24 bp) (DNA, mismatch bulge abasic) GACCAGCTTATCACCCCTAGATACCAT/ATGCTATCTAGGGGTGATAAGCTGGTC; details: 200 mM NaCl; 5 mM Tris, pH 7.5; 1 μM DNA
[3] = system: 20-mer duplex (DNA, duplex) TGAGGATGTGTAGGTTGATG/CATCAACCTACACATCCTCA; details: 200 mM NaCl; 5 mM Tris, pH 7.5; 1 μM DNA
[4] = system: 3WJ (three-way junction) (DNA, junction) TGAGGATGTGTAGGTTGATG/CATCAACCTAAGAATGAGAC/GTCTCATTCTCACATCCTCA; details: 200 mM NaCl, 5 mM Tris, pH 7.5, 1 μM DNA
[5] = system: mismatch 1 duplex (27-mer, CC mismatch at 4 bp) (DNA, mismatch bulge abasic) GACCAGCTTATCACCCCTAGATACCAT/ATGGTATCTAGGGGTGATAAGCTCGTC; details: 200 mM NaCl; 5 mM Tris, pH 7.5; 1 μM DNA
[6] = system: G-quadruplex (G4) (DNA, G4) AGGGTTAGGGTTAGGGTTAGGG; details: 100 mM KCl, 10 mM Tris.HCl, pH 7.4, 1 μM DNA
[7] = system: matched duplex (27-mer) (DNA, duplex) GACCAGCTTATCACCCCTAGATACCAT/ATGGTATCTAGGGGTGATAAGCTGGTC; details: 200 mM NaCl; 5 mM Tris, pH 7.5; 1 μM DNA
[8] = not saturated, tested up to 20 μM

Cc1ccc(-c2ccc(C)cn2)nc1.Cc1ccc(-c2ccc(C)cn2)nc1.[Ru+2].c1ccc2nc3c4cccnc4c4ncccc4c3nc2c1
Kd [1]: 4.3 ± 0.6 µM | Kd [2]: 5.1 ± 0.3 µM | Kd [3]: 2.3 ± 0.5 µM | Kd [4]: 4.4 ± 0.7 µM | Kd [5]: 4.6 ± 0.6 µM | Kd [6]: 3.8 ± 1.7 µM | Kd [7]: 4.7 ± 0.1 µM

Cc1ccc(-c2ccc(C)cn2)nc1.[Ru+2].c1ccc(-c2nc3c4cccnc4c4ncccc4c3[nH]2)cc1.c1ccc(-c2nc3c4cccnc4c4ncccc4c3[nH]2)cc1
Kd [1]: > 20 µM | Kd [2]: 7.6 ± 1.9 µM | Kd [3]: 2.6 ± 1.0 µM | Kd [4]: 6.4 ± 0.3 µM | Kd [5]: 7.3 ± 2.5 µM | Kd [6, 8]: > 20 µM | Kd [7]: 7.9 ± 2.5 µM

Cc1ccc(-c2ccc(C)cn2)nc1.[Ru+2].c1ccc2nc3c4cccnc4c4ncccc4c3nc2c1.c1ccc2nc3c4cccnc4c4ncccc4c3nc2c1
Kd [1]: 8.3 ± 3.0 µM | Kd [2]: 8.1 ± 3.7 µM | Kd [3]: 6.3 ± 0.3 µM | Kd ([4]; tested up to 20 μM): > 20 µM | Kd [5]: 6.4 ± 1.7 µM | Kd [6, 8]: > 20 µM | Kd [7]: 8.1 ± 1.7 µM

[Ru+2].c1ccc(-c2ccccn2)nc1.c1ccc(-c2ccccn2)nc1.c1ccc2nc3c4cccnc4c4ncccc4c3nc2c1
Kd [1]: 5.3 ± 0.6 µM | Kd [2]: 6.5 ± 1.8 µM | Kd [3]: 2.8 ± 0.9 µM | Kd [4]: 4.3 ± 0.9 µM | Kd [5]: 5.0 ± 0.7 µM | Kd [6]: 3.9 ± 1.3 µM | Kd [7]: 5.1 ± 0.4 µM
